In ChEMBL document CHEMBL1127830, “A new photoaffinity analog of cGMP: potent inhibitor of cyclic nucleotide phosphodiesterase” (J Med Chem, 1994) one finds IC50 data, which are given here for one molecule.

The nature of experiment [1]: Inhibition of rat bladder dome cAMP phosphodiesterase.
Experiment [2] is described as follows: Inhibition of human platelet cAMP phosphodiesterase.
Experiment [3] is described as follows: Inhibition of rat bladder dome cGMP phosphodiesterase.

By IC50 is commonly meant the concentration at which inhibition is half-maximal. Read a low IC50 as greater potency in that assay. For the molecule `NC1=NC(=O)C2N=CN([C@@H]3O[C@@H]4COP(=O)(O)O[C@H]4[C@H]3OC(=O)c3ccc(C(=O)c4ccccc4)cc3)C2=N1` (stereo partly drawn), the IC50 worked out at 15.8 µM in experiment [1], 3.4 µM in experiment [2] and 0.3 µM in experiment [3].
